Measured values taken from patent US20230270692A1, “COMPOUNDS FOR CHRONIC DISORDERS” (Pillai Universal LLC, priority 2020, published 2023).
In brackets after ≈: the same amount, converted by molar mass.

Tests used:
[1] = tested on: cytokines and chemokines in the lungs; test: Xenograft stage 4 metastasized breast cancer animal model, lung cytokines and pathology; assay type: in vivo
Excerpt: In a xenograft stage 4 metastasized breast cancer animal model, Compound I decreased production of cytokines (tumor necrosis factor alpha [TNF-α] and interleukin-6 [IL6]) and chemokines (CXCL10, CCL2, CCL3, CCL5), and were correlated with migration of Natural Killer cells and macrophages and observed in the lungs.

[2] = tested on: Pancreatic adenocarcinoma cells (PANC); test: MTT cell viability of pancreatic cancer cells; assay type: cell-based, Human
Protocol: The synthesized compounds of Formula 1-4 were evaluated for cell proliferation, apoptosis, cell cycle arrest, the generation of reactive oxygen species and calcium were measured using MTT assay and flow cytometry, respectively. The expression of apoptosis- and proliferation-related proteins was determined by western blotting. The effect of molecules on apoptosis-related mRNA expression in cancer cells was detected by RT-PCR.
Changes in cell morphology were detected by the presence of cell membrane blebbing, chromatin condensation, and formation of apoptotic bodies (FIG. 10A).

[3] = tested on: xenograft nude mice models (triple-negative breast cancer, pancreatic, liver, colon cancer); test: In vivo metastasis / stage IV tumor studies in xenograft nude mice versus standard drugs; details: mice, after 9 months since administration
[4] = tested on: cytotoxic cells, macrophages, NK cell and DC; test: Immune response
Excerpt: Compound I has the ability to activate CD4+ helper […] and generates an immune response in the body to protect against viral infections, Specifically, Compound I increases the number and activity of cytotoxic cells and promotes the activation of macrophages NK cell and DC which facilitate APC to CD4+ and CD8+ through capture, internalization, processing and presentation of antigens via MHC class I and II molecules.

[5] = 28-day oral sub-chronic toxicity (OECD 408); assay type: in vivo
Protocol: […] […] Rats in control groups were administrated orally with the same volume of distilled water (vehicle). During the experimental period, the body weights of all groups were measured once a week. Animals were also visually observed for mortality, changes in behavioral patterns, changes in physical appearance, and symptoms of illness. […] Blood samples were collected for the measurement of hematological (EDTA-2K coated tubes) and biochemical (dry tubes) parameters. After euthanasia, the rats were sacrificed and organs were removed for necropsy, organ weight measurement, and histopathological examination.
Urinalysis: On the last week of the treatment period, a urine test was conducted in all rat groups. Fresh urine was collected overnight from all animals, to determine specific gravity, pH, levels of leukocytes, nitrites, protein, glucose, ketones, blood, urobilinogen, and bilirubin. Urine samples were analyzed using an automatic urine analyzer and test strips.
Hematology and serum biochemistry: For the hematological investigation, all animals fasted overnight but were allowed access to water ad libitum. The rats were then anesthetized, and blood samples were collected from the abdominal aorta. Whole blood was collected in EDTA tubes (containing potassium salt of ethylenediamine-tetracetic acid) and processed immediately for hematological analysis. The parameters measured were red blood cell count (RBC), hematocrit (HCT), hemoglobin (HGB), mean corpuscular volume (MCV), mean corpuscular hemoglobin concentration (MCHC), mean corpuscular hemoglobin (MCH), white blood cell count (WBC), neutrophils (NEU), eosinophils (EOS), basophils (BASO), lymphocytes (LYM), and monocytes (MONO). The hematological analysis was performed using an automatic hematological analyzer. For the measurement of biochemical parameters, dry tubes containing collected blood were centrifuged at 3000 rpm at 5° C. for 15 min to obtain the serum. Serum samples were analyzed using an automated biochemistry analyzer. The clinical biochemistry parameters included, total serum protein (TP), albumin (ALB), total bilirubin (T-BIL), alkaline phosphatase (ALP), alanine aminotransferase (ALT), aspartate aminotransferase (AST), uric acid (URIC), urea (UREA), creatinine (CREA), low-density lipoprotein-cholesterol (LDL-C), high-density lipoprotein-cholesterol (HDL-C), total cholesterol (TC), triglycerides (TG), and glucose (GLU). Serum electrolytes such as calcium (Ca2+), sodium (Nat), potassium (K^+), and chloride (CF) were also determined.
Necropsy and organ weight: All groups of rats were subjected to gross necropsy, which included the examination of the thoracic organs, external surface, and all of the internal organs. Vital organs were carefully examined macroscopically for any type of abnormalities. Thereafter, various organs, including the heart, liver, kidneys, stomach, lung, spleen, adrenals, thymus, epididymis, testes, uterus, and ovaries were surgically removed, cleaned with ice-cold saline solution, placed on absorbent papers, and then weighed (absolute organ weight in grams). The relative organ weight (ROW) of each animal was then calculated as follows: ROW=[Absolute organ weight (g)÷Bodyweight of rat on sacrifice day (g)]×100.
Histopathology: The major organs (lung, heart, liver, kidney) and reproductive organs (testis and ovary) were removed for histopathological examinations. After weight measurement, the organs were quickly fixed in 10% buffered formalin (pH 7.4). Following fixation, tissue specimens were dehydrated in a graded series of ethanol (70-100%), cleared in toluene, and finally enclosed in paraffin. Thereafter, 5-μm thin sections were prepared using a microtome (Leica) and stained with Haematoxylin and Eosin (H & E) prior to microscopic examination.

SARS-CoV-2 [6] = assay type: in vivo; details: PO 250 mg B.I.D. over 7 days
[7] = Cytotoxicity in Calu-3 cells; assay type: cell-based; details: human, Calu-3 lung epithelial cells, read-out: 50% cytotoxic concentration (CC50)
Protocol: The antiviral activity of Compound I was assessed against SARS-CoV-2 in Calu-3 cultures. […] To determine if Compound I could inhibit replication, we first evaluated antiviral activity and cytotoxicity in the continuous human lung epithelial cell line Calu-3 cells.

in vitro = details: African green monkey
SARS-CoV-2 [8] = test: Inactivation of SARS-CoV-2 upon direct exposure; details: Severe acute respiratory syndrome coronavirus 2, read-out: 50% reduction (IC50), inactivation of SARS-CoV-2

Structure (SMILES): COc1cc(/C=C/C(=O)/C=C/C=C/c2cc(OC)c(O)c(OC)c2)cc(OC)c1 [Compound I]
- lung histopathology ([1]; by day 7): normal lung pathology without any pneumonitis observed
- production of cytokines (TNF-α, IL6) and chemokines (CXCL10, CCL2, CCL3, CCL5) ([1]; in vivo): decreased
- cell viability ([2]; 24 and 48 h, 1-100 μg/mL): decreased significantly in time- and dose-dependent manners
- cytotoxicity at 10 µg/mL ([2]; Homo sapiens, Pancreatic cancer cell, read-out: decrease in viable cells): ~65.5%
- IC50 ([2]; Homo sapiens, Pancreatic cancer cell, PANC cells, after 24 hours of exposure): 5.74 ± 0.02 µg/mL (≈ 14.5 µM)
- relapse of disease [3]: no relapse of disease
- number and activity of cytotoxic cells [4]: increases
- plasma levels of AST, ALT, ALP activities ([5]; 200, 500, 1000 and 2000 mg/kg, both sexes): insignificant changes
- food and water intakes ([5]; 28 d, P>0.05 vs control): no significant changes
- body weight ([5]; acute and subacute toxicity groups): did not elicit any deleterious effect on body weight
- level of creatinine, electrolytes, urea or uric acid ([5]; all doses, both sexes): no significant difference
- WBC count and subtypes ([5]; any of the doses): did not cause any significant changes
- hematological parameters (WBC, RBC, PCV, hemoglobin) ([5]; compared to the control group): not significantly altered
- histopathology: liver ([5]; female rats): almost normal cellular architecture with normal hepataocytes
- Relative organ weight (ROW) ([5]; liver, brain, kidney, heart, spleen): did not elicit any adverse effects to the vital organs
- histopathology: heart ([5]; male and female rats): appeared normal
- histopathology: kidney ([5]; male and female rats): almost normal size and shape of glomeruli, tubules, intestinum and blood vesicles
- histopathology: lungs ([5]; male and female rats): no lymphocytic infiltrations were observed
- histopathology: pancreas ([5]; male and female rats): almost no abnormalities were observed
- histopathology: stomach ([5]; male and female rats): normal cellular architecture
- histopathology: liver ([5]; male rats): normal hepatocytes along with normal portal triads, sinusoidal spaces and central venous system
- histopathology: reproductive organs (testis, ovary) ([5]; rat, in vivo): normal pathology
- levels of total protein, albumin, conjugated bilirubin and bilirubin ([5]; rat, in vivo): no significant difference
- treatment related death ([5]; subacute, 28-day, both sexes): no treatment related death was observed
- time to decrease of overactivated cytokine-secreting immune cells (SARS-CoV-2 [6]): 3 to 5 days
- time to improved pulmonary function and symptoms (SARS-CoV-2 [6]): 4 to 5 days
- CC50 [7]: > 100 µM
- CC50 (in vitro): > 15 µM
- IC50 (SARS-CoV-2 [8]): 1000 nM
